From patent publication US6235284A, “Synthetic polypeptides belonging to the hepatitis C virus (HCV) and which can be used especially for detecting the latter” (Bio Merieux, priority 1992, dated 2001)

What was measured:
[1] = tested on: anti-HCV antibodies (HCV-positive sera); test: ELISA detection of anti-HCV antibodies in HCV-positive sera with adsorbed peptides; type: binding, human
Summary of the method: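 Peptides were adsorbed at 10 μg/ml for 2 h at 37 °C and blocked with 10% goat serum. Sera, first tested at 1/100, were incubated 1 h at 37 °C, detected with peroxidase anti-human IgG and OPD, and read at OD 492 nm (in places ×10^3), in duplicate.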

[2] = tested on: anti-HCV antibodies binding onto peptide S42G; test: Inhibition test: inhibition of binding of anti-HCV antibodies onto peptide S42G by preincubation with peptides; parameters: species or system human; settings: inhibitor 0.1 mg/ml
Description: To evaluate this hypothesis, inhibition tests, whose usefulness lies in the fact that they allow the formation of the antigen-antibody complex in liquid medium, were carried out, thus dispensing with possible artifacts linked to the adsorption of peptides onto a solid support.
The inhibition experiments were carried out by reaction, in liquid phase, of the HCV sera with the peptides followed by reaction of the remaining antibodies with the peptide adsorbed onto the microplates. The inhibitory peptides are incubated at a concentration of 0.1 mg/ml with sera of appropriate dilution. The rest of the manipulation is identical to that described for the ELISA test.
Peptide S18D (SEQ ID NO:11), or V22G (SEQ ID NO:12), or a mixture of both, is preincubated overnight in the presence of the serum to be tested. The antibodies can bind onto the corresponding sites.

V22G: a peptide of 24 amino acids covering sequence 22 to 45 of the CORE protein (VKFPGGGQIVGGVYLLPRRGPRLG)
optical density at 492 nm ([1]; Table 2, line 68, serum not named (below CTS), 1/100): 2.500 OD | optical density at 492 nm ([1]; Table 2, line 69, serum not named (below CTS), 1/1000): 1.605 OD | optical density at 492 nm ([1]; Table 2, line 70, serum not named (below CTS), 1/10000): 0.255 OD | optical density at 492 nm ([1]; Table 2, line 75, serum B4, 1/1000): 1.214 OD | optical density at 492 nm ([1]; Table 2, line 76, serum B4, 1/1000 (so in the source)): 0.144 OD | optical density at 492 nm ([1]; Table 2, serum B1, 1/100): 1.225 OD | optical density at 492 nm ([1]; Table 2, serum B2, 1/100): 0.756 OD | optical density at 492 nm ([1]; Table 2, serum B3, 1/100): 0.329 OD | optical density at 492 nm ([1]; Table 2, serum B4, 1/100): 2.500 OD | optical density at 492 nm ([1]; Table 2, serum B5, 1/100): 0.863 OD | optical density at 492 nm ([1]; Table 2, serum B6, 1/100): 0.749 OD | optical density at 492 nm ([1]; Table 2, serum B7, 1/100): 2.102 OD | optical density at 492 nm ([1]; Table 2, serum B8, 1/100): 0.358 OD | optical density at 492 nm ([1]; Table 2, serum B9, 1/100): 2.082 OD | optical density at 492 nm ([1]; Table 2, serum B10, 1/100): 0.225 OD | optical density at 492 nm ([1]; Table 2, serum B11, 1/100): 0.616 OD | optical density at 492 nm ([1]; Table 2, serum B12, 1/100): 1.017 OD | optical density at 492 nm ([1]; Table 2, serum B13, 1/100): 0.304 OD | optical density at 492 nm ([1]; Table 2, serum B14, 1/100): 0.186 OD | optical density at 492 nm ([1]; Table 2, serum B15, 1/100): 0.954 OD | optical density at 492 nm ([1]; Table 2, serum B16, 1/100): 2.500 OD | optical density at 492 nm ([1]; Table 2, serum CTS, 1/100): 2.500 OD | optical density at 492 nm ([1]; Table 2, serum CTS, 1/1000): 1.155 OD | optical density at 492 nm ([1]; Table 2, serum CTS, 1/10000): 0.043 OD | optical density at 492 nm ([1]; Table 2, serum P1, 1/100): 0.426 OD | optical density at 492 nm ([1]; Table 2, serum P2, 1/100): 0.290 OD | optical density at 492 nm ([1]; Table 2, serum P3, 1/100): 0.503 OD | optical density at 492 nm ([1]; Table 2, serum P4, 1/100): 1.739 OD | optical density at 492 nm ([1]; Table 2, serum P5, 1/100): 2.500 OD | optical density at 492 nm ([1]; Table 2, serum P5, 1/1000): 2.293 OD | optical density at 492 nm ([1]; Table 2, serum P5, 1/10000): 0.578 OD | optical density at 492 nm ([1]; Table 2, serum P6, 1/100): 0.000 OD | optical density at 492 nm ([1]; Table 2, serum P7, 1/100): 2.500 OD | optical density at 492 nm ([1]; Table 2, serum P7, 1/1000): 1.590 OD | optical density at 492 nm ([1]; Table 2, serum P7, 1/10000): 0.237 OD | optical density at 492 nm ([1]; Table 2, serum P8, 1/100): 2.241 OD | optical density at 492 nm ([1]; Table 2, serum P8, 1/1000): 0.476 OD | optical density at 492 nm ([1]; Table 2, serum P8, 1/10000): 0.049 OD | optical density at 492 nm ([1]; Table 2, serum P9, 1/100): 0.008 OD | optical density at 492 nm ([1]; Table 2, serum P10, 1/100): 0.026 OD | optical density at 492 nm ([1]; Table 2, serum P11, 1/100): 2.500 OD | optical density at 492 nm ([1]; Table 2, serum P12, 1/100): 2.500 OD | optical density at 492 nm ([1]; Table 2, serum P12, 1/1000): 2.500 OD | optical density at 492 nm ([1]; Table 2, serum P12, 1/10000): 0.106 OD | optical density at 492 nm ([1]; Table 2, serum P13, 1/100): 0.013 OD | optical density at 492 nm ([1]; Table 2, serum P14, 1/100): 1.778 OD | optical density at 492 nm ([1]; Table 2, serum P15, 1/100): 1.810 OD | optical density at 492 nm ([1]; Table 2, serum P16, 1/100): 2.500 OD | optical density at 492 nm ([1]; Table 2, serum P17, 1/100): 1.832 OD | optical density at 492 nm ([1]; Table 2, serum P18, 1/100): 2.500 OD | optical density at 492 nm ([1]; Table 2, serum P18, 1/1000): 0.598 OD | optical density at 492 nm ([1]; Table 2, serum P18, 1/10000): 0.072 OD | optical density at 492 nm ([1]; Table 2, serum P19, 1/100): 0.010 OD | optical density at 492 nm ([1]; Table 2, serum P20, 1/100): 2.249 OD | optical density at 492 nm ([1]; Table 2, serum P21, 1/100): 2.272 OD | optical density at 492 nm ([1]; Table 2, serum P22, 1/100): 2.500 OD | optical density at 492 nm ([1]; Table 2, serum P22, 1/1000): 0.702 OD | optical density at 492 nm ([1]; Table 2, serum P22, 1/10000): 0.088 OD | optical density at 492 nm ([1]; Table 2, serum P23, 1/100): 0.015 OD | optical density at 492 nm ([1]; Table 2, serum P24, 1/100): 0.579 OD | optical density at 492 nm ([1]; Table 2, serum P25, 1/100): 2.252 OD | optical density at 492 nm ([1]; Table 2, serum P25, 1/1000): 0.695 OD | optical density at 492 nm ([1]; Table 2, serum P25, 1/10000): 0.089 OD | optical density at 492 nm ([1]; Table 2, serum P26, 1/100): 2.500 OD | optical density at 492 nm ([1]; Table 2, serum P26, 1/1000): 1.541 OD | optical density at 492 nm ([1]; Table 2, serum P26, 1/10000): 0.199 OD | optical density at 492 nm ([1]; Table 2, serum P27, 1/100): 1.600 OD | optical density at 492 nm ([1]; Table 2, serum P28, 1/100): 2.500 OD | optical density at 492 nm ([1]; Table 2, serum P29, 1/100): 0.005 OD | optical density at 492 nm ([1]; Table 2, serum P30, 1/100): 2.500 OD | optical density at 492 nm ([1]; Table 2, serum P31, 1/100): 2.500 OD | optical density at 492 nm ([1]; Table 2, serum P31, 1/1000): 2.500 OD | optical density at 492 nm ([1]; Table 2, serum P31, 1/10000): 0.847 OD | optical density at 492 nm ([1]; Table 2, serum P32, 1/100): 1.639 OD | optical density at 492 nm ([1]; Table 2, serum P33, 1/100): 1.987 OD | optical density at 492 nm ([1]; Table 2, serum P34, 1/100): 1.618 OD | optical density at 492 nm ([1]; Table 2, serum P35, 1/100): 1.504 OD | optical density at 492 nm ([1]; Table 2, serum P36, 1/100): 1.226 OD | optical density at 492 nm ([1]; Table 2, serum P37, 1/100): 2.500 OD | optical density at 492 nm ([1]; Table 2, serum P37, 1/1000): 0.865 OD | optical density at 492 nm ([1]; Table 2, serum P37, 1/10000): 0.128 OD | optical density at 492 nm ([1]; Table 2, serum P38, 1/100): 2.500 OD | optical density at 492 nm ([1]; Table 2, serum P38, 1/1000): 1.582 OD | optical density at 492 nm ([1]; Table 2, serum P38, 1/10000): 0.057 OD | optical density at 492 nm ([1]; Table 2, serum P39, 1/100): 1.835 OD | optical density at 492 nm ([1]; Table 2, serum P40, 1/100): 2.500 OD | optical density at 492 nm ([1]; Table 2, serum P41, 1/100): 2.218 OD | optical density at 492 nm ([1]; Table 2, serum P42, 1/100): 0.000 OD | reactivity towards HCV-positive sera ([1]; in words): carry one or more epitopes | inhibition ([2]; serum B4, 1/10,000): 83.6% | inhibition ([2]; serum P5, 1/10,000): 83.0% | inhibition ([2]; serum P7, 1/10,000): 81.0% | inhibition ([2]; serum P8, 1/10,000): 77.4% | inhibition ([2]; serum P18, 1/10,000): 48.0% | inhibition ([2]; serum P22, 1/10,000): 65.5% | inhibition ([2]; serum P25, 1/10,000): 71.8% | inhibition ([2]; serum P31, 1/10,000): 39.9% | inhibition ([2]; serum P37, 1/10,000): 88.7% | inhibition ([2]; serum P38, 1/10,000): 70.3%
